Laboratory results: US8476261B2, “Spirocyclic aminoquinolones as GSK-3 inhibitors” (Kyorin Pharmaceutical Co., Ltd., priority 2007, dated 2013)
pIC50: −log10 of the molar value.

What follows are compounds tested against T1, recombinant full-length human GSK3β (Homo sapiens, UniProt P49841) (assay: cell-free GSK3 kinase assay (KinaseGlo luciferase)). Conditions: Table 1; 5 μM ATP, 1 hour at 30 degrees Celsius.
T1 construct: recombinant full-length human GSK3β (Upstate); purchased Upstate
Assay type: biochemical
Method: Proceed to KinaseGlo luciferase reaction.
Following the completion of the kinase reaction an equal volume of KinaseGlo luciferase reagent (Promega) is added and the luminescence read using a luminescence plate reader within 5-10 minutes.

T1 sequence (P49841 whole entry): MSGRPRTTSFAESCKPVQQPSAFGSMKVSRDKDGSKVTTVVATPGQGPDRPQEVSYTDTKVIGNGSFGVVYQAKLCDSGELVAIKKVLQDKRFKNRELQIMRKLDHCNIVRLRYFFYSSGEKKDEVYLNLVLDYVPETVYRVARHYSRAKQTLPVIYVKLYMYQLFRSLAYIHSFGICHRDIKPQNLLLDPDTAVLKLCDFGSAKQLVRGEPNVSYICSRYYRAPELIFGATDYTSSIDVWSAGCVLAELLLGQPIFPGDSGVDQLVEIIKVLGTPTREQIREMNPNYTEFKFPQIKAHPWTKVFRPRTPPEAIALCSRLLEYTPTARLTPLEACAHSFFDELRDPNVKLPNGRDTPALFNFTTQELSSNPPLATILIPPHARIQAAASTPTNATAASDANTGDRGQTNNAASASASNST

Row | SMILES | pIC50
1 | Nc1c(F)c(NCCNc2ccccn2)c2c3c1c(=O)c(C(=O)O)cn3C1(CCCC1)CO2 [Compound 1] | > 7.82
2 | Cc1cc(NCCNc2c(F)c(N)c3c(=O)c(C(=O)O)cn4c3c2OCC42CCCC2)nc2ccccc12 [Compound 2] | 6.82 to 7.21
3 | Nc1c(F)c(NCCCn2cncn2)c2c3c1c(=O)c(C(=O)O)cn3C1(CCCC1)CO2 [Compound 3] | 6.82 to 7.21
4 | Nc1c(F)c(NCCCc2ccc(F)cc2)c2c3c1c(=O)c(C(=O)O)cn3C1(CCCC1)CO2 [Compound 4] | > 7.82
5 | Nc1c(F)c(NCCCN2CCCc3ccccc32)c2c3c1c(=O)c(C(=O)O)cn3C1(CCCC1)CO2 [Compound 5] | 7.22 to 7.80
6 | CC(CCc1ccc(Cl)cc1)Nc1c(F)c(N)c2c(=O)c(C(=O)O)cn3c2c1OCC31CCCC1 (centres unmarked) [Compound 6] | 7.22 to 7.80
7 | Nc1c(F)c(NCCCNC(=O)c2ccco2)c2c3c1c(=O)c(C(=O)O)cn3C1(CCCC1)CO2 [Compound 7] | 7.22 to 7.80
8 | Nc1c(F)c(NCCCNC(=O)C23CC4CC(CC(C4)C2)C3)c2c3c1c(=O)c(C(=O)O)cn3C1(CCCC1)CO2 [Compound 8] | 7.22 to 7.80
9 | Nc1c(F)c(NCCOc2ccc(F)cc2)c2c3c1c(=O)c(C(=O)O)cn3C1(CCCC1)CO2 [Compound 9] | 7.22 to 7.80
10 | Cc1cc(OCCNc2c(F)c(N)c3c(=O)c(C(=O)O)cn4c3c2OCC42CCCC2)ccc1Cl [Compound 10] | 7.22 to 7.80
11 | Nc1c(F)c(NCCSc2c[nH]c3ccccc23)c2c3c1c(=O)c(C(=O)O)cn3C1(CCCC1)CO2 [Compound 11] | > 7.82
12 | Nc1c(F)c(NCCOc2ccc(Cl)cc2)c2c3c1c(=O)c(C(=O)O)cn3C1(CCCC1)CO2 [Compound 12] | 6.82 to 7.21
13 | Nc1c(F)c(NCCOc2ccc(Cl)cc2Cl)c2c3c1c(=O)c(C(=O)O)cn3C1(CCCC1)CO2 [Compound 13] | 6.82 to 7.21
14 | COc1ccc(OCCNc2c(F)c(N)c3c(=O)c(C(=O)O)cn4c3c2OCC42CCCC2)cc1OC [Compound 14] | > 7.82
15 | Cc1ccc2nc(C)cc(NCCNc3c(F)c(N)c4c(=O)c(C(=O)O)cn5c4c3OCC53CCCC3)c2c1 [Compound 15] | > 7.82
16 | Cc1nnc(SCCNc2c(F)c(N)c3c(=O)c(C(=O)O)cn4c3c2OCC42CCCC2)[nH]1 [Compound 16] | > 7.82
17 | Nc1c(F)c(NCCOc2ccc(C3CCCCC3)cc2)c2c3c1c(=O)c(C(=O)O)cn3C1(CCCC1)CO2 [Compound 17] | < 6.82
18 | Cn1ccnc1SCCNc1c(F)c(N)c2c(=O)c(C(=O)O)cn3c2c1OCC31CCCC1 [Compound 18] | > 7.82
19 | Nc1c(F)c(NCCS(=O)(=O)N2CCCCC2)c2c3c1c(=O)c(C(=O)O)cn3C1(CCCC1)CO2 [Compound 19] | 6.82 to 7.21
20 | Nc1c(F)c(NCCNC2=NS(=O)(=O)c3ccccc32)c2c3c1c(=O)c(C(=O)O)cn3C1(CCCC1)CO2 [Compound 20] | > 7.82
21 | Nc1c(F)c(NCCSc2nnnn2-c2ccccc2)c2c3c1c(=O)c(C(=O)O)cn3C1(CCCC1)CO2 [Compound 21] | > 7.82
22 | Nc1c(F)c(NCC(O)Cn2cnc3ccccc32)c2c3c1c(=O)c(C(=O)O)cn3C1(CCCC1)CO2 (centres unmarked) [Compound 22] | 6.82 to 7.21
23 | CCN(CCCNc1c(F)c(N)c2c(=O)c(C(=O)O)cn3c2c1OCC31CCCC1)c1ccccc1 [Compound 23] | > 7.82
24 | Nc1c(F)c(NCCN2CCc3ccccc32)c2c3c1c(=O)c(C(=O)O)cn3C1(CCCC1)CO2 [Compound 24] | 6.82 to 7.21

Row | SMILES | pIC50
25 | Cc1ccc(OCCNc2c(F)c(N)c3c(=O)c(C(=O)O)cn4c3c2OCC42CCCC2)cc1 [Compound 25] | 7.22 to 7.80
26 | Nc1c(F)c(NCCCc2ccccn2)c2c3c1c(=O)c(C(=O)O)cn3C1(CCCC1)CO2 [Compound 26] | > 7.82
27 | Nc1c(F)c(NCCCc2ccccc2Cl)c2c3c1c(=O)c(C(=O)O)cn3C1(CCCC1)CO2 [Compound 27] | > 7.82
28 | COc1ccc(CCCNc2c(F)c(N)c3c(=O)c(C(=O)O)cn4c3c2OCC42CCCC2)cc1 [Compound 28] | > 7.82
29 | CCOc1ccc(CCCNc2c(F)c(N)c3c(=O)c(C(=O)O)cn4c3c2OCC42CCCC2)cc1OCC [Compound 29] | 7.22 to 7.80
30 | Cc1cc(NCCNc2c(F)c(N)c3c(=O)c(C(=O)O)cn4c3c2OCC42CCCC2)c2ccccc2n1 [Compound 30] | > 7.82
31 | CC(CCc1ccccc1Cl)Nc1c(F)c(N)c2c(=O)c(C(=O)O)cn3c2c1OCC31CCCC1 (centres unmarked) [Compound 31] | 7.22 to 7.80
32 | Cc1nn(C)c(C)c1CCCNc1c(F)c(N)c2c(=O)c(C(=O)O)cn3c2c1OCC31CCCC1 [Compound 32] | > 7.82
33 | COc1ccc(OCCNc2c(F)c(N)c3c(=O)c(C(=O)O)cn4c3c2OCC42CCCC2)cc1 [Compound 34] | 6.82 to 7.21
34 | Nc1c(F)c(NCCCc2ccccn2)c2c3c1c(=O)c(-c1nnn[nH]1)cn3C1(CCCC1)CO2 [Compound 35] | 7.22 to 7.80
35 | N#Cc1cn2c3c(c(NCCCc4ccccn4)c(F)c(N)c3c1=O)OCC21CCCC1 [Compound 36] | > 7.82
36 | N#Cc1cn2c3c(c(NCCCn4ccnc4)c(F)c(N)c3c1=O)OCC21CCCC1 [Compound 37] | > 7.82
37 | Cc1nn(C)c(C)c1CCCNc1c(F)c(N)c2c(=O)c(C#N)cn3c2c1OCC31CCCC1 [Compound 38] | > 7.82
38 | COc1ccc(C(CCNc2c(F)c(N)c3c(=O)c(C(=O)O)cn4c3c2OCC42CCCC2)c2ccc(F)cc2)cc1 (centres unmarked) [Compound 39] | > 7.82
39 | Nc1c(F)c(NCCCc2ccc(Cl)cc2)c2c3c1c(=O)c(C(=O)O)cn3C1(CCCC1)CO2 [Compound 40] | < 6.82
40 | Cc1cc(C)n(CCCNc2c(F)c(N)c3c(=O)c(C(=O)O)cn4c3c2OCC42CCCC2)n1 [Compound 41] | 7.22 to 7.80
41 | Cc1[nH]ncc1CCCNc1c(F)c(N)c2c(=O)c(C(=O)O)cn3c2c1OCC31CCCC1 [Compound 42] | > 7.82
42 | N=C(NO)c1cn2c3c(c(NCCCn4ccnc4)c(F)c(N)c3c1=O)OCC21CCCC1 [Compound 43] | 6.82 to 7.21
43 | Nc1c(F)c(NCCNc2ccccn2)c2c3c1c(=O)c(C(=O)O)cn3C1(CCC1)CO2 [Compound 44] | 7.22 to 7.80
44 | Nc1c(F)c(NCCNc2ccccn2)c2c3c1c(=O)c(C(=O)O)cn3CC1(CCC1)O2 [Compound 45] | 6.82 to 7.21
45 | Nc1c(F)c(NCCNc2ccccn2)c2c3c1c(=O)c(C(=O)O)cn3C1(CCO2)CC1 [Compound 46] | 7.22 to 7.80
46 | Nc1c(F)c(NCCNc2ccccn2)c2c3c1c(=O)c(C(=O)O)cn3C1(CCC1)CCO2 [Compound 47] | 7.22 to 7.80
47 | Nc1c(F)c(NCCNc2ccccn2)c2c3c1c(=O)c(C(=O)O)cn3C1(CCCC1)CCO2 [Compound 48] | < 6.82
48 | CC1COc2c(NCCNc3ccccn3)c(F)c(N)c3c(=O)c(C(=O)O)cn(c23)C12CCC2 (centres unmarked) [Compound 49] | > 7.82

Row | SMILES | pIC50
49 | CC1CC2(CCC2)n2cc(C(=O)O)c(=O)c3c(N)c(F)c(NCCNc4ccccn4)c(c32)O1 (centres unmarked) [Compound 50] | < 6.82
50 | Nc1c(F)c(NCCNc2ccccn2)c2c3c1c(=O)c(C(=O)O)cn3CC1(CCC1)CO2 [Compound 51] | 6.82 to 7.21
51 | Nc1c(F)c(NCCNc2ccccn2)c2c3c1c(=O)c(C(=O)O)cn3CC1(CC1)CO2 [Compound 52] | < 6.82
52 | Nc1c(F)c(NCCNc2ccccn2)c2c3c1c(=O)c(C(=O)O)cn3C1(CCC1)CCN2 [Compound 53] | 7.22 to 7.80
53 | COc1ccc(CNc2c(F)c(N)c3c(=O)c(C(=O)O)cn4c3c2OCCC42CCC2)cc1 [Compound 55] | 6.82 to 7.21
54 | Nc1c(F)c(NCCCc2ccccn2)c2c3c1c(=O)c(C(=O)O)cn3C1(CCC1)CCO2 [Compound 56] | > 7.82
55 | CCN(CCCNc1c(F)c(N)c2c(=O)c(C(=O)O)cn3c2c1OCCC31CCC1)c1ccccc1 [Compound 57] | 7.22 to 7.80
56 | Nc1c(F)c(NCCNC(=O)c2ccccn2)c2c3c1c(=O)c(C(=O)O)cn3C1(CCC1)CCO2 [Compound 58] | 7.22 to 7.80
57 | Nc1c(F)c(NCCCc2ccc(F)cc2)c2c3c1c(=O)c(C(=O)O)cn3C1(CCC1)CCO2 [Compound 59] | > 7.82
58 | Nc1c(F)c(NCCCn2ccnc2)c2c3c1c(=O)c(C(=O)O)cn3C1(CCC1)CCO2 [Compound 60] | > 7.82
59 | Nc1nc(NCCNc2c(F)c(N)c3c(=O)c(C(=O)O)cn4c3c2OCCC42CCC2)ccc1[N+](=O)[O-] [Compound 61] | 6.82 to 7.21
60 | Nc1c(F)c(NC2CCN(c3ccccn3)C2)c2c3c1c(=O)c(C(=O)O)cn3C1(CCC1)CCO2 (centres unmarked) [Compound 62] | < 6.82
61 | Nc1c(F)c(N[C@H]2C[C@H]2Cc2ccccn2)c2c3c1c(=O)c(C(=O)O)cn3C1(CCCC1)CO2 [Compound 63] | < 6.82
62 | Nc1c(F)c(N[C@@H]2C[C@H]2Cc2ccccn2)c2c3c1c(=O)c(C(=O)O)cn3C1(CCCC1)CO2 [Compound 64] | 7.22 to 7.80
63 | Nc1c(F)c(NCCCc2ccccc2)c2c3c1c(=O)c(C(=O)O)cn3C1(CCCC1)CO2 [Compound 65] | > 7.82
64 | Nc1c(F)c(NCCOc2ccccc2)c2c3c1c(=O)c(C(=O)O)cn3C1(CCCC1)CO2 [Compound 66] | < 6.82
65 | CC(C)c1ccc(OCCNc2c(F)c(N)c3c(=O)c(C(=O)O)cn4c3c2OCC42CCCC2)cc1 [Compound 67] | < 6.82
66 | Nc1c(F)c(NCCNC(=O)c2ccccn2)c2c3c1c(=O)c(C(=O)O)cn3C1(CCCC1)CO2 [Compound 68] | 7.22 to 7.80
67 | COc1cccc(CCCNc2c(F)c(N)c3c(=O)c(C(=O)O)cn4c3c2OCC42CCCC2)c1 [Compound 69] | > 7.82
68 | Nc1c(F)c(NCCCn2cnc3ccccc32)c2c3c1c(=O)c(C(=O)O)cn3C1(CCCC1)CO2 [Compound 70] | > 7.82
69 | Nc1c(F)c(NCCN2CCC(c3ccccc3)C2)c2c3c1c(=O)c(C(=O)O)cn3C1(CCCC1)CO2 (centres unmarked) [Compound 71] | < 6.82
70 | Nc1c(F)c(NCCC(c2ccccc2)c2ccc3c(c2)OCO3)c2c3c1c(=O)c(C(=O)O)cn3C1(CCCC1)CO2 (centres unmarked) [Compound 72] | < 6.82

Same assay, conditions: Table 2; 5 μM ATP, 1 hour at 30 degrees Celsius

Row | SMILES | pIC50
71 | N#Cc1cn2c3c(c(NCCCc4ccccn4)c(F)c(N)c3c1=O)OCC21CC1 | > 7.82
72 | N#Cc1cn2c3c(c(NCCCc4cccnc4)c(F)c(N)c3c1=O)OCC21CC1 | > 7.82
73 | N#Cc1cn2c3c(c(NCCCn4cccn4)c(F)c(N)c3c1=O)OCC21CC1 | > 7.82
74 | N#Cc1cn2c3c(c(NCCCc4ccncc4)c(F)c(N)c3c1=O)OCC21CCCC1 | > 7.82
